From patent publication US4812573A, “Pharmaceutically active compounds” (SmithKline & French Laboratories, Ltd., priority 1986, dated 1989)
Where a name gives a salt, the structure may show the parent alone.

What was measured:
TXA2 receptors = target: T1, TXA2 receptors (Homo sapiens, UniProt P21731); test: human platelet binding assay ([^125 I]PTA-OH receptor ligand); conditions: 50% inhibition of specific [^125 I]PTA-OH binding
T1 construct: endogenous in cells; host or cells: human platelets
T1 sequence (P21731 1-343): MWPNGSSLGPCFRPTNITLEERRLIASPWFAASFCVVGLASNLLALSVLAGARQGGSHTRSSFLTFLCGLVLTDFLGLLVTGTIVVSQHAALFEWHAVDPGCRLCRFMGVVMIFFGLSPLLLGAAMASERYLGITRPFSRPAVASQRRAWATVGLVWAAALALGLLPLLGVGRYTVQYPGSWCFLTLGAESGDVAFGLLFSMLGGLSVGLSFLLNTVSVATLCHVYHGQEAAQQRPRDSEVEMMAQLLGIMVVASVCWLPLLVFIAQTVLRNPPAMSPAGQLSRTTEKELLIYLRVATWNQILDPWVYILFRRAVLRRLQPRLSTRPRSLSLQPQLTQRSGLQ
Excerpt: As indicated above, compounds of the formula (I) have biological activity that is indicative of an ability to antagonise TXA2 receptors. […] Exp. Ther., 1985, 235(3), 729-734 where [^125 I]PTA-OH was used as the receptor ligand. The IC50 values represent the concentration which produces a 50% inhibition of specific [^125 I]PTA-OH binding.

human washed platelets = test: human platelet aggregation assay (submaximal U46619 induced aggregation); assay type: cell-based
Excerpt: As indicated above, compounds of the formula (I) have biological activity that is indicative of an ability to antagonise TXA2 receptors.
(b) human platelet aggregation assay.
HUMAN PLATELET AGGREGATION ASSAY
The aggregation assay used human washed platelets and was based on that described by Born (Nature, 1962, vol. 194, 927-929). The assay determines a concentration of test compound which inhibits a submaximal U46619 induced aggregation by 50% (IC50). U46619 is the thromboxane A2 -agonist (9,11-dideoxy-11α,9α-epoxymethanoprostaglandin F2α).

SMILES | IC50 (TXA2 receptors) [µM] | IC50 (human washed platelets) [µM]
O=C(O)CCCN1CCc2ccc(S(=O)(=O)Nc3cccc(Cl)c3)cc2C1 [Example 2, 4-[7-(3-Chlorophenylsulphamoyl)-1,2,3,4-tetrahydroisoquinolin-2-yl]butyric acid] | 1.02 | 9.3
CCCCC(C(=O)O)N1CCc2ccc(NS(=O)(=O)c3ccccc3)cc2C1 (centres unmarked) [Example 14, 2-[(7-Phenylsulphonamido)-1,2,3,4-tetrahydroisoquinolin-2-yl]-caproic acid hydrochloride] | 98 | –
O=C(O)CCCN1CCc2ccc(S(=O)(=O)Nc3cccc(C(F)(F)F)c3)cc2C1 [Example 7, 4-[7-(3-Trifluoromethylphenylsulphamoyl)-1,2,3,4-tetrahydroisoquinolin-2-yl]butyric acid] | 2.8 | –
O=C(O)CCCCN1CCc2c(cccc2NS(=O)(=O)c2ccccc2)C1 [Example 10, 5-[(5-Phenylsulphonamido)-1,2,3,4-tetrahydroisoquinolin-2-yl]valeric acid hydrochloride] | 134 | –
O=C(O)CCN1CCc2ccc(S(=O)(=O)Nc3cccc(Cl)c3)cc2C1 [Example 1, 3-[7-(3-Chlorophenylsulphamoyl)-1,2,3,4-tetrahydroisoquinolin-2-yl]propionic acid] | 49.3 | 103
O=C(O)CN1CCc2ccc(NS(=O)(=O)c3ccccc3)cc2C1 [Example 13, 2-[(7-Phenylsulphonamido)-1,2,3,4-tetrahydroisiquinolin-2-yl]-acetic acid hydrochloride] | 84 | –
O=C(O)C#CCN1CCc2ccc(S(=O)(=O)Nc3cccc(Cl)c3)cc2C1 [Example 8, Sodium 4-[7-(3-chlorophenylsulphamoyl)-1,2,3,4-tetrahydroisoquinolin-2-yl]but-2-ynoate] | 0.7 | –
O=C(O)CCCN1CCc2c(cccc2NS(=O)(=O)c2ccccc2)C1 [Example 9, 4-[5-(Phenylsulphonamido)-1,2,3,4-tetrahydroisoquinolin-2-yl]butyric acid hydrochloride] | 79 | –
O=C(O)CCCN1CCc2ccc(S(=O)(=O)Nc3ccc(Cl)cc3)cc2C1 [Example 15, 4-[7-(4-Chlorophenylsulphamoyl)-1,2,3,4-tetrahydroisoquinolin-2-yl]butyric acid] | 7.8 | –
CCOC(=O)CCCCN1CCc2ccc(S(=O)(=O)Nc3cccc(Cl)c3)cc2C1 [Example 3a, ethyl-5-[7-(3-chlorophenylsulphamoyl)-1,2,3,4-tetrahydroisoquinolin-2-yl]valerate hydrochloride] | 3.1 | –

The remaining lines, values ahead:

IC50 (TXA2 receptors) [µM] | IC50 (human washed platelets) [µM] | SMILES
40.7 | – | O=C(O)CCCCN1CCc2ccc(NS(=O)(=O)c3ccccc3)cc2C1 [Example 12, 5-[7-Phenylsulphonamido-1,2,3,4-tetrahydroisoquiolin-2-yl]valeric acid]
3.75 | – | O=C(O)CCCN1CCc2ccc(S(=O)(=O)Nc3ccccc3)cc2C1 [Example 5, 4-(7-Phenylsulphamoyl-1,2,3,4-tetrahydroisoquinolin-2-yl)butyric acid]
9.2 | – | O=C(O)CCCCN1CCc2ccc(S(=O)(=O)Nc3ccccc3)cc2C1 [Example 6, 5-(7-Phenylsulphamoyl-1,2,3,4-tetrahydroisoquinolin-2-yl)valeric acid]
232 | – | O=C(O)CCCN1CCc2cc(NS(=O)(=O)c3ccccc3)ccc2C1 [Example 11, 4-[6-Phenylsulphonamido-1,2,3,4-tetrahydroisoquinolin-2-yl]butyric acid]
3.8 | 34 | O=C(O)CCCCCN1CCc2ccc(S(=O)(=O)Nc3cccc(Cl)c3)cc2C1 [Example 4, 6-[7-(3-Chlorophenylsulphamoyl)-1,2,3,4-tetrahydroisoquinolin-2-yl]hexanoicacid]
1.06 | 3.9 | O=C(O)CCCCN1CCc2ccc(S(=O)(=O)Nc3cccc(Cl)c3)cc2C1 [Example 3b, 5-[7-(3-Chlorophenylsulphamoyl)-1,2,3,4-tetrahydroisoquinolin-2-yl]valeric acid]
